# Source: publication PMC10951303, “Macroscopic inhibition of DNA damage repair pathways by targeting AP-2α with LEI110 eradicates hepatocellular carcinoma” (Communications Biology, 2024)
# Biological target: T1, AP-2α (TFAP2A) (Homo sapiens, UniProt P05549)
# T1 construct: endogenous full-length protein in intact HEP3B cells; western blot read-out
# Experiment: cellular thermal shift assay (CETSA), western blot
# Type: cell-based
# Conditions: HEP3B cells treated with LEI110 or DMSO for 1 h, then heated 3 min at increasing temperatures
# T1 sequence (P05549 whole entry): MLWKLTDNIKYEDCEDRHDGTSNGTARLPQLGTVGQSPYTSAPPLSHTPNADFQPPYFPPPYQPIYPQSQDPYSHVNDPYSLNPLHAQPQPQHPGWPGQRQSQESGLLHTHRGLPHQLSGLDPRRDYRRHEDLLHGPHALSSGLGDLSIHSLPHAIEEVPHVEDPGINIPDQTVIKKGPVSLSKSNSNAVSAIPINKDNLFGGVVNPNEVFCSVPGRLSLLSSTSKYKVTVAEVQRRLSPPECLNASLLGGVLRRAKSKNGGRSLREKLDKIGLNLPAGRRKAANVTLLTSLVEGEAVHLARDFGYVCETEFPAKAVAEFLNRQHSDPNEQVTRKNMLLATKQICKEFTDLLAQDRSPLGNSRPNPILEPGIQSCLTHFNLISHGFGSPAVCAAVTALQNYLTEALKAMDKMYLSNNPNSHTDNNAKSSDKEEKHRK
compound,measurement,value
O=C(CCCc1ccccc1)C(=O)NCCc1ccc(Oc2ccc(C(F)(F)F)cn2)cc1 [LEI110],"cellular thermal shift assay (CETSA), western blot",the stabilization of AP-2α by LEI110 was observed in the CETSA
